Measured values: the supplement of paper PMC10307832

Tests used:
Assay in all cases: relative viability (nuclei count vs DMSO), 5 days (fraction); higher = more cells survive
IU1-47 + Lapatinib = compound: CC1=CC(=C(N1C2=CC=C(C=C2)Cl)C)C(=O)CN3CCCCC3 [IU1-47] + CS(=O)(=O)CCNCc1ccc(-c2ccc3ncnc(Nc4ccc(OCc5cccc(F)c5)c(Cl)c4)c3c2)o1 [Lapatinib] (partner 2 µM)
Outline: (§1)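 Each reported value is a median over duplicate plates. It expresses relative viability: treated-well nuclei count divided by vehicle-well nuclei count. Lung cancer cell lines in 1536-well plates were dosed by pin tool a day after seeding, alone with one drug or with a fixed anchor-drug dose plus five library-drug doses (not always all listed) in √10 steps, and nuclei were counted after 5 days.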

FG-4592 + Olaparib = compound: Cc1nc(C(=O)NCC(=O)O)c(O)c2ccc(Oc3ccccc3)cc12 [FG-4592] + O=C(c1cc(Cc2n[nH]c(=O)c3ccccc23)ccc1F)N1CCN(C(=O)C2CC2)CC1 [Olaparib] (partner 8 µM)
Outline: as §1

IU1-47 + Foretinib = compound: CC1=CC(=C(N1C2=CC=C(C=C2)Cl)C)C(=O)CN3CCCCC3 [IU1-47] + COc1cc2c(Oc3ccc(NC(=O)C4(C(=O)Nc5ccc(F)cc5)CC4)cc3F)ccnc2cc1OCCCN1CCOCC1 [Foretinib] (partner 0.25 µM)
Outline: as §1

FG-4592 + Dasatinib = compound: Cc1nc(C(=O)NCC(=O)O)c(O)c2ccc(Oc3ccccc3)cc12 [FG-4592] + Cc1nc(Nc2ncc(C(=O)Nc3c(C)cccc3Cl)s2)cc(N2CCN(CCO)CC2)n1 [Dasatinib] (partner 0.075 µM)
Outline: as §1

With UMC-11 the relative viability (IU1-47 + Lapatinib; first compound 0.08 µM) was 0.887, the relative viability (IU1-47 + Lapatinib; first compound 0.253 µM) was 0.877 and the relative viability (IU1-47 + Lapatinib; first compound 0.8 µM) was 1.03. It also gave a relative viability (IU1-47 + Lapatinib; first compound 2.53 µM) of 1.24, a relative viability (IU1-47 + Lapatinib; first compound 8 µM) of 0.876 and a relative viability (FG-4592 + Olaparib; first compound 0.08 µM) of 0.286. The relative viability (FG-4592 + Olaparib; first compound 0.253 µM) was 0.332, the relative viability (FG-4592 + Olaparib; first compound 0.8 µM) was 0.357 and the relative viability (FG-4592 + Olaparib; first compound 2.53 µM) was 0.341. It also gave a relative viability (FG-4592 + Olaparib; first compound 8 µM) of 0.348, a relative viability (IU1-47 + Foretinib; first compound 0.08 µM) of 1.13 and a relative viability (IU1-47 + Foretinib; first compound 0.253 µM) of 0.99. The relative viability (IU1-47 + Foretinib; first compound 0.8 µM) was 1.25, the relative viability (IU1-47 + Foretinib; first compound 2.53 µM) was 1.15 and the relative viability (IU1-47 + Foretinib; first compound 8 µM) was 1.13. It also gave a relative viability (FG-4592 + Dasatinib; first compound 0.08 µM) of 0.439, a relative viability (FG-4592 + Dasatinib; first compound 0.253 µM) of 0.46 and a relative viability (FG-4592 + Dasatinib; first compound 0.8 µM) of 0.447. It also gave a relative viability (FG-4592 + Dasatinib; first compound 2.53 µM) of 0.417 and a relative viability (FG-4592 + Dasatinib; first compound 8 µM) of 0.493.
